The nature of data set [1]: In vivo renal clearance / pharmacokinetics of AAI after intravenous administration with or without JBP485. On the set-up: species or system rat. Conditions: rats, i.v. As to the method: Rats were randomly assigned to an AAI (4 mg/kg) group or an AAI (4 mg/kg) + JBP485 (50 mg/kg) group (n = 5 per group). The drugs were diluted in normal saline and administered intravenously via the left jugular vein. Subsequently, blood samples (0.2 mL) were collected via the right jugular vein with heparinized syringes at 1, 3, 5, 10, 30, 60, 120, 240, 360, and 480 min post-treatment. Isotonic saline solution (0.2 mL) was injected after each blood sample collection. Urine was collected directly from the bladder at 2, 4, 6, and 8 h after drug administration. AAI concentrations were measured by LC–MS/MS. Pharmacokinetic parameters, renal clearance (CLR), and cumulative urinary excretion were calculated.
(§1) The concentrations of the test compounds in plasma, urine, and cell lysates were determined using an Agilent HP1200 liquid chromatography system (Agilent Technology Inc., SC, CA, United States) and an API 3200 triple-quadrupole mass spectrometer (Applied Biosystems, SC, CA, United States). After protein precipitation using acetonitrile, the analyte was separated on a Hypersil BDS C18 column. The mobile phase consisted of acetonitrile and water containing 0.1% (v/v) formic acid (80:20, v/v). The flow rate was 0.4 mL/min. The mass spectrometer was equipped with an electrospray ionization (ESI) source. Data were acquired in positive ion mode and dynamic multiple reaction monitoring (MRM) mode. The ESI source conditions were as follows: ion spray voltage, 5.5 kV; ion source temperature, 600°C; Gas source 1 (GS1, N2) pressure, 50 psi; Gas source 2 (GS2, N2) pressure, 60 psi; curtain gas (CUR) pressure, 12 psi; and collision gas (CAD) pressure, 10 psi. EP and CXP were set at […] for all analytes. The scan range was m/z 359.9→298.1 for AAI and m/z 130.0→71.2 for IS (Internal Standard, metformin). […] Intra- and inter-day precision was lower than 4.5% with reference to relative standard deviation, while accuracy was within ±6.5% in terms of relative error for analytes. Analyst software (version 1.4.1) was used for equipment control and data acquisition and analysis.

In another data set the target is T1, hOAT1 (Homo sapiens, UniProt Q4U2R8).
T1 construct: expressed in transfected cells; host or cells: HEK293
T1 sequence (Q4U2R8 1-563): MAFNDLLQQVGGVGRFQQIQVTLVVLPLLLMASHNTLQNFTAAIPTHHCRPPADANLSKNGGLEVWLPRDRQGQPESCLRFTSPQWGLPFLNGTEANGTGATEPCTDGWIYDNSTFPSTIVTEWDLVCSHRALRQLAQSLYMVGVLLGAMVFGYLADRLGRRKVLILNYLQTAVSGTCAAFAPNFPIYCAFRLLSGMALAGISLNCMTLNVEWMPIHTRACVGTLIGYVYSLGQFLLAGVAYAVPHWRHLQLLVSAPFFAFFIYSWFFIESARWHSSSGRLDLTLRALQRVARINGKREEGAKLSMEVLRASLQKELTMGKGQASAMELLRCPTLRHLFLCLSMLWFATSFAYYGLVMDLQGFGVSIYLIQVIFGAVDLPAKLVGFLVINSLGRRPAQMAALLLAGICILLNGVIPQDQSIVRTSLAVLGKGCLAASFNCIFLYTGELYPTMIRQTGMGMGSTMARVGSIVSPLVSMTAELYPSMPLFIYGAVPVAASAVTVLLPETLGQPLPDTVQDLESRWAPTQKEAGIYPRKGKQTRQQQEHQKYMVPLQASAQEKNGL
As to the kind of experiment: Uptake of AAI by hOAT1-transfected HEK293 cells with or without JBP485. The data set is classed as cell-based. How it is done: (§2) Uptake experiments with hOAT1/3-HEK293 cells were performed as previously described ([Zhu et al., 2020]). Uptake was initiated by adding transport buffer (1 mL) with AAI (1 μM) and/or JBP485 (500 μM) after the cells were washed twice and incubated with transport buffer at 37°C. Moreover, the concentration-dependent uptake of AAI and the effects of JBP485 on AAI uptake were examined. Uptake was terminated upon the removal of the medium. The cells were washed three times with 1 mL of ice-cold Hanks’ balanced salt solution, lysed with 0.3 mL of 0.1% (v/v) Triton X-100, and then transferred to a polythene tube for quantification by LC-MS/MS. The protein level was measured using the BCA method (Solarbio, Beijing, China) with bovine serum albumin serving as the standard.
as §1

A further data set concerns the target T2, hOAT3 (Homo sapiens, UniProt Q8TCC7).
T2 construct: expressed in transfected cells; host or cells: HEK293
T2 sequence (Q8TCC7 1-542): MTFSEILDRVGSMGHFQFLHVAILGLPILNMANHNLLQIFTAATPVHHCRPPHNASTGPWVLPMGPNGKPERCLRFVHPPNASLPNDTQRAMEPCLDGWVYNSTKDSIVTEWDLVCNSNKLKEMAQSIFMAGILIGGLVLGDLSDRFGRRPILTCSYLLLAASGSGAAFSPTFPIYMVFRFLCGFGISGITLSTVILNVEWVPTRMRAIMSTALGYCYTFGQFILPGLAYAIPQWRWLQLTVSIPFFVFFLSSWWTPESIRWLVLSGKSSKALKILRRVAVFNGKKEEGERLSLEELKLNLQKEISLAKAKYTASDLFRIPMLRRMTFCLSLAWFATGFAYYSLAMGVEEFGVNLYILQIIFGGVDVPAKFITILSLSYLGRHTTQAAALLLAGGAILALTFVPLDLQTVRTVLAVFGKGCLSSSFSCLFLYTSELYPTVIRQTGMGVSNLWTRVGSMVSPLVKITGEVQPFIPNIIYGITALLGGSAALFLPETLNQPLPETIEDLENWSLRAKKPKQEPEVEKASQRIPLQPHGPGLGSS
As to the kind of experiment: Uptake of AAI by hOAT3-transfected HEK293 cells with or without JBP485. Format: cell-based. As to the method:
as §2, §1

Setting [2] is: AAI 4 mg/kg with or without JBP485 50 mg/kg, n = 5.

The structures appear in SMILES notation.

Take `O=C1N[C@@H](CO)C(=O)N2C[C@H](O)C[C@@H]12` (relative stereo) [JBP485, cyclo-trans-4-L-hydroxyprolyl-L-serine]: the “cumulative urinary excretion of AAI over 8 h” value in data set [1] (co-treatment with JBP485 50 mg/kg vs AAI 4 mg/kg alone) is recorded as “reduction”. Besides, the AAI plasma concentrations entry in data set [1] (concurrent JBP485 50 mg/kg vs AAI 4 mg/kg alone) is recorded as “significantly increased”. Further, the “type of inhibition of AAI uptake” value at hOAT1 (hOAT1-HEK293 cells, Km increased, Vmax unchanged) is on record as “competitive inhibition”; on hOAT3 (hOAT3-HEK293 cells, Km increased, Vmax unchanged) it was “competitive inhibition”. Also, the 50% inhibitory concentration (IC50) (commonly the midpoint of a concentration-inhibition curve) at hOAT1 (hOAT1-transfected HEK293 cells, substrate AAI, read-out: IC50 of inhibition of AAI uptake, OAT1) was found to be 89.8 ± 12.3 µM; on hOAT3 (hOAT3-transfected HEK293 cells, substrate AAI, read-out: IC50 of inhibition of AAI uptake, OAT3), 91 ± 10.3 µM.

On to `COc1cccc2c1cc([N+](=O)[O-])c1c(C(=O)O)cc3c(c12)OCO3` [AAI, Aristolochic Acid I], for which, in data set [1] (setting [2]), the “AUC0-∞ of AAI” value came out at 536.2 ± 14.3 µg·min/L, the “AUC(0-t) of AAI” value is 496.0 ± 14.5 µg·min/L, the “CLR (renal clearance) of AAI” value stood at 74.4 ± 5.4 L/h/kg and the “CLp (plasma clearance) of AAI” value was 450 ± 12 L/h/kg. Besides, in data set [1] (setting [2]), the “Vd of AAI” value amounted to 232.9 ± 13.0 L/kg and the “t1/2β of AAI” value was determined as 1.61 ± 0.107 h. Moreover, the Km (commonly the concentration of substrate that gives half-maximal velocity) at hOAT1 (hOAT1-HEK293 cells, with or without JBP485, Eadie-Hofstee, n = 3) worked out at 15.7 ± 0.4 µM. For the same molecule, the “Vmax of AAI uptake” value at hOAT1 (hOAT1-HEK293 cells, with or without JBP485, n = 3) came to 0.141 ± 0.04 nmol/mg protein/1min. For the same molecule, the Km at hOAT3 (hOAT3-HEK293 cells, with or without JBP485, Eadie-Hofstee, n = 3) was found to be 30.6 ± 1.2 µM. Also, the “Vmax of AAI uptake” value on hOAT3 (hOAT3-HEK293 cells, with or without JBP485, n = 3) came to 0.077 ± 0.03 nmol/mg protein/1min.

These data come from PMC12074917, “Molecular pharmacokinetic mechanism of JBP485 against aristolochic acid I (AAI) -induced nephrotoxicity” (Frontiers in Pharmacology, 2025).
